# From patent US4337256A, “1-Phenyl isoquinoline-5-acetic acid compounds and analgesic compositions thereof” (priority 1978, dated 1982)
# Read-outs that look alike come from different tables or passages of the source.
# Legend:
# [1] = reported in J. Med. Chem. 1978, 21, 582-585; cited from earlier work
# [2] = tested on: left hind paw edema (carrageenin); assay: Anti-inflammatory activity: carrageenin-induced left hind paw edema; assay type: in vivo, male Wistar rats; conditions: Rattus norvegicus, po, p.o., 1 h before carrageenin, measured 3 h later, read-out: Percent inhibition (edema)
# Experimental: Male Wistar rats weighing 120 to 150 g which had been fasted for 24 hours were used in groups each consisting of 5 rats. In each group, the volumes of the left hind paw were measured by a volume differential meter (made by Ugo Basile Company), and each of the test compounds was suspended in an aqueous solution of 0.5% of carboxymethyl cellulose and 2.0% of Tween 80, and administered orally through a tube. After one hour from the administration, 0.1 ml of a 1% suspension of carrageenin in distilled water was subcutaneously injected into the plantar tissues of the left hind paw. Three hours later, the volumes of the left hind paw were again measured. The increase in volume of the left hind paw of each rat in each group (the volume of edema) was measured.
# [3] = tested on: writhings (acetic acid) in the mice; assay: Analgesic activity: acetic acid writhing test; assay type: in vivo, male mice (ddY); conditions: Mus musculus, po; p.o. 1 h before 0.6% acetic acid i.p.; parentheses show 95% confidence limits; read-out: ED50 (analgesic, writhing inhibition)
# Experimental: Male mice (ddY) weighing 18 to 22 g were used in groups each consisting of 10 mice. Each of the compounds was suspended in an aqueous solution of 0.5% of carboxymethyl cellulose and 2.0% of Tween 80, and administered orally through a tube. After one hour from the administration, 0.6% acetic acid was administered intraperitoneally in an amount of 0.1 ml per 10 g of body weight, and the number of writhings which occurred in the mice during a period of 20 minutes after the administration was measured. The percent inhibition was calculated from the following equation, and the ED50 values of the test compounds were calculated from the percent inhibition in accordance with the method of Litchfield-Wilcoxon.
# stomach mucosal membrane = assay: Ulcerogenic activity: gastric ulceration; assay type: in vivo, male Wistar rats; conditions: p.o., 4 h
# Experimental: Each of the test compounds was orally administered by the same way as in the test on anti-inflammatory activity to male Wistar rats weighing 120 to 150 g which had been fasted for 24 hours. Four hours later, they were killed with ether.
# [4] = target: T1, microsomes of bovine seminal vesicle (a prostaglandin synthesizing enzyme) (Bos taurus, UniProt O62664); assay: Activity of inhibiting prostaglandin synthesis (prostaglandin E2 formed); assay type: biochemical; conditions: 37° C., 5 minutes, pH 8.0, 50 μM arachidonic acid; dissolved as a sodium salt; read-out: ED50 (inhibition of prostaglandin synthesis)
# T1 construct: a microsome fraction prepared from bovine seminal vesicle; from tissue; host or cells: bovine seminal vesicle, lyophilized microsome fraction
# T1 sequence (O62664 25-600): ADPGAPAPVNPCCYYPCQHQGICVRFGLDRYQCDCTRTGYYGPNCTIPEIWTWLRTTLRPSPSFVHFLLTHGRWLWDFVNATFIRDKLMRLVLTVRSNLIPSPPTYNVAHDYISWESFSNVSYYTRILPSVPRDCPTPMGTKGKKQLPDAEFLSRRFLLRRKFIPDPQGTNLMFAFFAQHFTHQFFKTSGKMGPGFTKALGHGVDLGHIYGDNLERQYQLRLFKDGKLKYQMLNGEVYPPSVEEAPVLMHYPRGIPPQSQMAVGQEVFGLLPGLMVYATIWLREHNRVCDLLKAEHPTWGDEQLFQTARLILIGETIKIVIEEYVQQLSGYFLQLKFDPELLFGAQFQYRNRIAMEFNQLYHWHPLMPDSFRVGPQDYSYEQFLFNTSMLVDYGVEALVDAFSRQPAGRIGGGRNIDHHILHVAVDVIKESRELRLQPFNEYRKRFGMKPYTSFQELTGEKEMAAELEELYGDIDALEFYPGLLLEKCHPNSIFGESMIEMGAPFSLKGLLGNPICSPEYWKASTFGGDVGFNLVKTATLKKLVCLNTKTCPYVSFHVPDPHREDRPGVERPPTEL
# Experimental: The activity of inhibiting prostaglandin synthesis was measured by adding a test compound, i.e. a substance having the activity of inhibiting prostaglandin synthesis, to a prostaglandin synthesizing reaction system shown below, and quantitatively determining to what extent synthesis of prostaglandin was inhibited.
# 100 mM tris-HCl buffer (pH=8.0),
# 0.0125 μCi/ml (14c)-arachidonic acid,
# 1 mg/ml, as protein, of microsomes of bovine seminal vesicle (a prostaglandin synthesizing enzyme obtained by lyophylizing a microsome fraction prepared from bovine seminal vesicle).
# The test compound was added to the reaction system to adjust the total amount to 1 ml. As a control, 1 ml of the above reaction system without addition of the test compound was provided. Each of these was incubated with shaking at 37° C. for 5 minutes, and 0.5 ml of 0.3 M citric acid was added to stop the reaction. The prostaglandin formed was extracted with ethyl acetate, fractionated by thin-layer chromatography. The radioactivity of each fraction was measured by a liquid scintillation counter. The amount of prostaglandin E2 formed in the group to which the test compound had been applied was measured, and the percent inhibition was calculated in accordance with the following equation. From the percent inhibition, the ED50 value of the test compounds was calculated in accordance with the Litchfield-Wilcoxon method. […]
# platelet aggregation = assay: Activity of inhibiting platelet aggregation (collagen-induced); assay type: cell-based, male Hartley guinea pig; conditions: Cavia porcellus, 2 min, read-out: ED50 (inhibition of platelet aggregation)
# Experimental: The citrated blood was centrifuged at a speed of 1,000 rpm for 10 minutes. The supernatant was collected to obtain a platelet-rich plasma. Separately, it was contrifuged at a speed of 3,000 rpm for 15 minutes, and the supernatant was collected to obtain a platelet-poor plasma. […] The platelet-rich plasma (250 μl) was placed in a cuvet, and preliminarily heated at 37° C. for 2 minutes, and then while stirring at a speed of 1,000 rpm, 31 μl of a test solution was added. The mixture was incubated for 2 minutes with stirring, and then 31 μl of a collagen solution was added, and the maximum aggregation rate of platelet was measured. The amount of the collagen applied was adjusted to the minimum effective amount which induced irreversible platelet aggregation. This amount was determined for each experiment. The percent inhibition of the test solution-applied group was determined in accordance with the following equation. From the percent inhibition, the ED50 value of the test compounds was calculated in accordance with the Litchfield-Wilcoxon method. Each test compound was dissolved in distilled water as a sodium salt.
# Toxicity test (LD50) = conditions: mouse, in vivo; oral, observed for 1 week; parentheses show 95% confidence limits
# Experimental: Each of the test compounds was suspended in a physiological saline solution having dissolved therein 2% of Tween 80, and orally administered through a tube to groups of ddY mice (male: 19 to 22 g) each group consisting of 6 mice. The mice were then observed for 1 week. The LD50 values were calculated from the lethality in accordance with the method of Litchfield-Wilcoxon.
# digestive organs = conditions: known agents, statement in words; cited from earlier work
compound,measurement,setting,value
NC(=O)Cc1cc2ccccc2c(-c2ccc(Cl)cc2)n1 [1-(4-chlorophenyl)-3-carbamoylmethyl isoquinoline],anti-inflammatory and analgesic activities,[1],has anti-inflammatory and analgesic activities
"O=C(O)Cc1cccc2c(-c3ccc(Cl)cc3)nccc12 [A, 1-(4-chlorophenyl)isoquinoline-5-acetic acid]",inhibition in vivo at 0.3 mg/kg,[2]; 0.3 mg/kg,22.7 ± 6.1%
same,inhibition in vivo at 1 mg/kg,[2]; 1 mg/kg,27.3 ± 7.4%
same,inhibition in vivo at 3 mg/kg,[2]; 3 mg/kg,44.6 ± 5.8%
same,ED50,[3],1.4 mg/kg
same,Gastric ulceration: bleeding at the mucosal membrane,stomach mucosal membrane; 10 mg/kg,0/10
same,Gastric ulceration: damage beneath the mucosal membrane,stomach mucosal membrane; 10 mg/kg,0/10
same,Gastric ulceration: bleeding at the mucosal membrane,stomach mucosal membrane; 30 mg/kg,0/5
same,Gastric ulceration: damage beneath the mucosal membrane,stomach mucosal membrane; 30 mg/kg,0/5
same,IC50,[4],0.82 µM
same,IC50,"platelet aggregation; collagen-induced, platelet-rich plasma, dissolved as a sodium salt, parentheses show 95% confidence limits",1.9 µM
same,LD50 at 168 h,Toxicity test (LD50),182 mg/kg
"CC(=O)Oc1ccccc1C(=O)O [Aspirin, reference compound]",IC50,platelet aggregation; Platelet,15.8 µM
same,troubles in the digestive organs,digestive organs,fairly heavy troubles in the digestive organs
"CCCCC1C(=O)N(c2ccccc2)N(c2ccccc2)C1=O [Phenylbutazone, reference compound]",ED50,[3],109 mg/kg
same,IC50,[4],26.1 µM
same,troubles in the digestive organs,digestive organs,fairly heavy troubles in the digestive organs
